# Activity calls are given as the source filed them.
# Experiments:
# [1] = biological target: T1, DNA repair protein RAD52 homolog (Homo sapiens, UniProt P43351); type: functional, biochemical
# T1 sequence (P43351 whole entry): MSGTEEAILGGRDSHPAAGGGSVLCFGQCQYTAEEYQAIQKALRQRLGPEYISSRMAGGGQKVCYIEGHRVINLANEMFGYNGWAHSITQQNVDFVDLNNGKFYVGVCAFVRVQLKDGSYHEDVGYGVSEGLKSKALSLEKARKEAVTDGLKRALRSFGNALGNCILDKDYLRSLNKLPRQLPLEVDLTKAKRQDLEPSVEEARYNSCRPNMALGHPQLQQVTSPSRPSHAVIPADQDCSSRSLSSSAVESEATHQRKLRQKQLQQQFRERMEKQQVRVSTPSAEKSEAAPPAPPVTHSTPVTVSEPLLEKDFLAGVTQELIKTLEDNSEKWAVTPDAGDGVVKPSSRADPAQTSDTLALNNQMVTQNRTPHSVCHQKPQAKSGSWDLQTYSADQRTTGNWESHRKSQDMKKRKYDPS
# [2] = blockers of HIV-1 envelope-mediated cell-cell fusion – cherry-pick, dose response (AID 652057); type: functional, cell-based
# [3] = blockers of HIV-1 ZM109 envelope-driven cell-cell fusion – HeLa effector, CEM target cells, luciferase, cherry-pick, dose response (AID 652058); type: functional, cell-based;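 note: luciferase signal from HIV-1 Env mediated cell-cell fusion of effector and target cells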
# [4] = off-target signal loss in HeLa-CEM21 co-culture – HeLa F-luc CTL cells, cherry-picked, counter-screen for HIV-1 Env fusion inhibitor project, dose response (AID 652040); type: functional, cell-based;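 note: potency for signal decrease marking cytotoxic or nonspecific inhibition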
# [5] = HIV-1 AD8 envelope cell-cell fusion blockers – cherry-pick, dose response (AID 652062); type: functional, cell-based;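 note: luciferase signal from cell-cell fusion driven by HIV-1 clade B AD8 Env; potency is for inhibitors of fusion seen as a drop in luminescence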
# Genome polyprotein = Genome polyprotein (dengue virus type 2, UniProt P29990); experiment: flavivirus cap methylation enzyme inhibition – biochemical, confirmation dose response, primary screen (AID 588689); type: functional
# [6] = biological target: T2, Sentrin-specific protease 8 (Homo sapiens, UniProt Q96LD8); type: functional
# T2 sequence (Q96LD8 whole entry): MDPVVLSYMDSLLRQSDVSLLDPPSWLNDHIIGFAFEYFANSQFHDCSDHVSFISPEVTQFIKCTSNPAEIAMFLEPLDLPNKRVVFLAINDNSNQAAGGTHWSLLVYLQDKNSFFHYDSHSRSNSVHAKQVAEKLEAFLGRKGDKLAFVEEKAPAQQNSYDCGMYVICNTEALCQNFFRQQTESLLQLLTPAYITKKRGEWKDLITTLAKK
# [7] = biological target: T2, Sentrin-specific protease 8; type: functional; remark: listed apart in the source
# [8] = Luminescence-based cell-based high throughput dose response assay to identify activators of the DAF-12 from the parasite S. stercoralis (ssDAF-12).; type: functional
# [9] = biological target: T3, Oxysterols receptor LXR-beta (Homo sapiens, UniProt P55055); experiment: LXR agonists, Gal4 luciferase reporter, dose response, counter-screen for ssDAF-12 agonist project, cell-based, luminescence, HEK293, S. stercoralis campaign (AID 720737); type: functional; settings: read-out: IC50 (the source's name)
# T3 sequence (P55055 whole entry): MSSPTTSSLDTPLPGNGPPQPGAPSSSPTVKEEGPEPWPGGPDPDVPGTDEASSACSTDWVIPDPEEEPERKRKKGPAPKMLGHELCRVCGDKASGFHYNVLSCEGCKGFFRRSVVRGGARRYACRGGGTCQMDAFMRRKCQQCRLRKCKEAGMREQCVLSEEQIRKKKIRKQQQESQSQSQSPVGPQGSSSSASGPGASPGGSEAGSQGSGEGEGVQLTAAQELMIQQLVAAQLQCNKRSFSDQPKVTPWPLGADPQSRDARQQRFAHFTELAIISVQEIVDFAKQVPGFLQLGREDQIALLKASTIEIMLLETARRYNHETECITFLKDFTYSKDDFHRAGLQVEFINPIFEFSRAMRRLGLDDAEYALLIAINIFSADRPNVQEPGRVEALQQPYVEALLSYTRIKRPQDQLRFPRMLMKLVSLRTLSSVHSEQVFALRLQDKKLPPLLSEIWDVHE
# Aminopeptidase N = biological target: T4, Aminopeptidase N (Plasmodium falciparum FcB1/Columbia, UniProt O96935); experiment: malaria alanyl aminopeptidase activity blockers – biochemical, fluorogenic H-Leu-NHMec substrate, 1536-well (AID 1445); set-up: species or system Plasmodium falciparum 3D7, 3D7
# T4 sequence (O96935 whole entry): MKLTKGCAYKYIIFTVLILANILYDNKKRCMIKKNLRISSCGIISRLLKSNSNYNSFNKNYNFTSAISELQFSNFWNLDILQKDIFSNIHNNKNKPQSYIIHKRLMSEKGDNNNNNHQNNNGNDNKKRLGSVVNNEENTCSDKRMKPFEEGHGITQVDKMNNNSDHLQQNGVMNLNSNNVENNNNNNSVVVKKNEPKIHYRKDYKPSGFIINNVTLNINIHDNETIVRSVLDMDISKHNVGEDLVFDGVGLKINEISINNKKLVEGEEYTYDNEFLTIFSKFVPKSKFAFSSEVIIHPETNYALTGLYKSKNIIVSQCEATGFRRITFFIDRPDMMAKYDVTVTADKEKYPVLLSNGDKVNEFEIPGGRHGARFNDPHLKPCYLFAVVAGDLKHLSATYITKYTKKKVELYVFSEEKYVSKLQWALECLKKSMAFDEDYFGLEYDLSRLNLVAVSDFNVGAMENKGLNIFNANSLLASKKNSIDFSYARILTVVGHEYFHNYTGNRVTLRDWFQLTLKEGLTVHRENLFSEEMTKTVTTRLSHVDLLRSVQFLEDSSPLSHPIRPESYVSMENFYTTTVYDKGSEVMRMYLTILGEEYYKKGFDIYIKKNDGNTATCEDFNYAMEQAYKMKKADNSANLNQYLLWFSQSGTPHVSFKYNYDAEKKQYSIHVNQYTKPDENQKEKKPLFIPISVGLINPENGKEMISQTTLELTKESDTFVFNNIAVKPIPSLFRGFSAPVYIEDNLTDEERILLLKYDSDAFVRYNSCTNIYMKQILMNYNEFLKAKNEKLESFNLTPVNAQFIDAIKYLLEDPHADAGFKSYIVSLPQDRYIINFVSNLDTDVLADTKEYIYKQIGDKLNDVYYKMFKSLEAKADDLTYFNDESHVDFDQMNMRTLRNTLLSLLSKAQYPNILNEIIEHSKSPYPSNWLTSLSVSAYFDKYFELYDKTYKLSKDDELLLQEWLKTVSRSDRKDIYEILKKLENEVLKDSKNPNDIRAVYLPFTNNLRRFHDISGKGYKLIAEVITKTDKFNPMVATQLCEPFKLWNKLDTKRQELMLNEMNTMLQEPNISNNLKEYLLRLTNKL
# Bcl-2-like protein 10 = biological target: T5, Bcl-2-like protein 10 (Homo sapiens, UniProt Q9HD36); experiment: Bcl-B/TR3 peptide binding disruption – biochemical, fluorescence polarization, FITC-TR3 peptide, selectivity assay for Bfl-1 inhibitor project, primary screen (AID 748);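 note: fluorescence polarization from a fluorescein-labelled TR3 peptide binding purified Bcl-B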
# T5 sequence (Q9HD36 whole entry): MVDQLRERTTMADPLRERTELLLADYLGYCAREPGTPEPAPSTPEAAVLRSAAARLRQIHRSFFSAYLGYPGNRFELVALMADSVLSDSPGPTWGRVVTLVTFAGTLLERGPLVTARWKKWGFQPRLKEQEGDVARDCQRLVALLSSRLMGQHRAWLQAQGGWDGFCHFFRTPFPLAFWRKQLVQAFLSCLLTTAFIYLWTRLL
# Sequence of Genome polyprotein (P29990 2492-3391 limits assumed): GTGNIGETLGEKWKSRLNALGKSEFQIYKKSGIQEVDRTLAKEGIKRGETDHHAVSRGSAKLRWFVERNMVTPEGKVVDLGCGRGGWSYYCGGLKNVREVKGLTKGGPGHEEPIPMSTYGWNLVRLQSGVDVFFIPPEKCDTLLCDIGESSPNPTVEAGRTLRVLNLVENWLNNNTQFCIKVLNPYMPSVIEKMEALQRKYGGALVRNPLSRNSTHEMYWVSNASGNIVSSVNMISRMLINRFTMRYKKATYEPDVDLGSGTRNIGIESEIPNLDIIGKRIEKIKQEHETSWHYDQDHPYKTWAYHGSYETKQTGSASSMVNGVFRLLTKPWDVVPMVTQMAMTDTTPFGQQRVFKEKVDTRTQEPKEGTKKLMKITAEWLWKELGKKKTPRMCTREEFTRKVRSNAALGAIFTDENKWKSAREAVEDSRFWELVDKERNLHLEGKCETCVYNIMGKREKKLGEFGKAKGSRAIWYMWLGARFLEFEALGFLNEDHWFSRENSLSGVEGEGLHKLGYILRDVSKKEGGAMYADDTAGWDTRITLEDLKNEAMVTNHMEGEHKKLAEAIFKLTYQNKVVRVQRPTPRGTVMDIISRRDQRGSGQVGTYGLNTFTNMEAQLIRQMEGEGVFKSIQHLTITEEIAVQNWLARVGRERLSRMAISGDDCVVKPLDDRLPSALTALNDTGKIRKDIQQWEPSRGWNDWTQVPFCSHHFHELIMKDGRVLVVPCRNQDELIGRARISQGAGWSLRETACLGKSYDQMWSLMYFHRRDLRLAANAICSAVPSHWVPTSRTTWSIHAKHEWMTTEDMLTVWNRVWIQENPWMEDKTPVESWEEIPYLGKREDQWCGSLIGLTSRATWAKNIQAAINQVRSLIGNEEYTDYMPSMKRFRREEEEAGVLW
structure (smiles),measurement,setting,value
CCOC(=O)N1CCN(C(S)=Nc2ccc3nc(N4CCN(CC)CC4)cc(C)c3c2)CC1,AC50,[1],15 µM (active)
COc1ccc([C@@H]2[C@@H]3C(=O)N(C(C)(C)C)C(=O)[C@@H]3[C@]3(CC(C)C)C(=O)N(c4cccc(Br)c4)C(=O)N23)cc1,AC50,[2],< 0.26 µM (active)
same,AC50,[3],< 0.26 µM (active)
same,AC50,[4],< 0.26 µM (active)
same,AC50,[5],< 0.26 µM (active)
COC/C=C/C1=CC2=CC(=O)C(C)(OC(=O)c3cnc4ccccc4n3)C(=O)C2=CN1C1CC1 (configuration not stated),IC50,Genome polyprotein,> 100 µM (active)
same,IC50,[6],16.6 µM (active)
same,IC50,[7],6.36 µM (active)
COc1ccc(CSc2nnc3nc(O)cc(N)n23)cc1,IC50,[8],> 67.6 µM (inactive)
same,EC50,[9],> 67.6 µM (inactive)
Cc1ccc(S(=O)(=O)Nc2nc3ccc(S(=O)(=O)N4CCCC4)cc3s2)cc1,IC50,Aminopeptidase N,53.5 µM (active)
Cc1cccc(OCC(=O)Nc2ccc(S(=O)(=O)N3CCCC3)cc2)c1,IC50,Bcl-2-like protein 10,> 100 µM (inactive)

# Source: ChEMBL document CHEMBL1201862, “PubChem BioAssay data set” (2004)
